Laboratory results taken from patent US10913736B2 (UNIVERSITY OF WASHINGTON, priority 2014, dated 2021).

Legend:
T. brucei = assay: Growth inhibition assay of T. brucei cell cultures (Alamar Blue, 48 h); type: cell-based; settings: Trypanosoma brucei; read-out: B) T. brucei EC50
MetRS (T. brucei) = MetRS (T. brucei) (Trypanosoma brucei brucei, UniProt Q38C91); assay: MetRS (T. brucei) ATP depletion assay using Kinase-Glo; type: biochemical
MetRS (T. brucei), sequence (Q38C91 entry or part of it): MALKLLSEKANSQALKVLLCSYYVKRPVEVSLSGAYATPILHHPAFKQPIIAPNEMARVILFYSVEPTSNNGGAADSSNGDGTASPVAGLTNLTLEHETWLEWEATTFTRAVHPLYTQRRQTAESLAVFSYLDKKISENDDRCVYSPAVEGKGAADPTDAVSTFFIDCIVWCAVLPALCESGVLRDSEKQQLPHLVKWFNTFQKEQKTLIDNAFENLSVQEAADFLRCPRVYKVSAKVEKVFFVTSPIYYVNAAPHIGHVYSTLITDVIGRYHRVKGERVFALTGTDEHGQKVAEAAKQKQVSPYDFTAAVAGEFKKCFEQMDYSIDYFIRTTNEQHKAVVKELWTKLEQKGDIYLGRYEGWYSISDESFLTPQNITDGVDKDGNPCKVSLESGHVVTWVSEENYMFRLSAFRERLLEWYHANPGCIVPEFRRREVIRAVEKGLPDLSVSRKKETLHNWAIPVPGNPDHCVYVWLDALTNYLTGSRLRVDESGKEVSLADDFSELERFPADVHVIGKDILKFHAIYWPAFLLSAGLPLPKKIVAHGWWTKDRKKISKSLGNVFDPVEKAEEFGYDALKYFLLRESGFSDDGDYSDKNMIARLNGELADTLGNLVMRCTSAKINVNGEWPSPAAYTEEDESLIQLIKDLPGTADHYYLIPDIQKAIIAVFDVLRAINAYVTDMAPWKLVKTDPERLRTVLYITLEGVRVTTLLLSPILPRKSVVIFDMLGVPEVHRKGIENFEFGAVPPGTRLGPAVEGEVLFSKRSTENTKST

Row | SMILES | EC50 (T. brucei) [µM] | IC50 (MetRS (T. brucei)) [µM]
1 | CC(=O)N(Cc1ccc(Cl)cc1Cl)C1CCCC(c2nc3nc(F)ccc3[nH]2)C1 (stereo not shown) [Compound 1836, N-(2,4-dichlorobenzyl)-N-(3-(5-fluoro-1H-imidazo[4,5-b]pyridin-2-yl)cyclohexyl)acetamide] | 7.63 | 1.43
2 | Clc1ccc(CN2CCC[C@H](c3nc4cc(Cl)ccc4[nH]3)C2)c(Cl)c1 [Compound 1837, (S)-5-chloro-2-(1-(2,4-dichlorobenzyl)piperidin-3-yl)-1H-benzo[d]imidazole] | 1.34 | 0.119
3 | Clc1cc(Cl)cc(CN2CCC[C@@H](c3nc4cc(Cl)ccc4[nH]3)C2)c1 [Compound 1838, (R)-5-chloro-2-(1-(3,5-dichlorobenzyl)piperidin-3-yl)-1H-benzo[d]imidazole] | 8.57 | > 10
4 | Fc1ccc2[nH]c(C3CCCC(NCc4cc(Cl)cc(Cl)c4)C3)nc2c1 (stereo not shown) [Compound 1839, N-(3,5-dichlorobenzyl)-3-(5-fluoro-1H-benzo[d]imidazol-2-yl) cyclohexanamine] | 2.32 | 3.68
5 | Clc1cc(Cl)cc(CNC2CCCC(c3nc4cc(Cl)ccc4[nH]3)C2)c1 (stereo not shown) [Compound 1840, 3-(5-chloro-1H-benzo[d]imidazol-2-yl)-N-(3,5-dichlorobenzyl) cyclohexanamine] | 1.95 | 0.58
6 | Clc1cc(Cl)cc(CNC2CCCC(c3nc4cc(Cl)cnc4[nH]3)C2)c1 (stereo not shown) [Compound 1841, 3-(6-chloro-3H-imidazo[4,5-b]pyridin-2-yl)-N-(3,5-dichlorobenzyl) cyclohexanamine] | 3.69 | 6.3
7 | CC(=O)N(Cc1cc(Cl)cc(Cl)c1)C1CCCC(c2nc3cc(Cl)cnc3[nH]2)C1 (stereo not shown) [Compound 1842, N-(3-(6-chloro-3H-imidazo[4,5-b]pyridin-2-yl)cyclohexyl)-N-(3,5-dichlorobenzyl)acetamide] | 8.58 | > 10
8 | Clc1cc(Cl)cc(CN[C@H]2CCN(c3nc4ccc(Cl)nc4[nH]3)C2)c1 [Compound 1845, (3S)-1-{5-chloro-3H-imidazo[4,5-b]pyridin-2-yl}-N-[(3,5-dichlorophenyl)methyl]pyrrolidin-3-amine] | 1.54 | 0.047
9 | Clc1ccc(CN[C@H]2CCN(c3nc4ccc(Cl)nc4[nH]3)C2)c(Cl)c1 [Compound 1846, (3S)-1-{5-chloro-3H-imidazo[4,5-b]pyridin-2-yl}-N-[(2,4-dichlorophenyl)methyl]pyrrolidin-3-amine] | 11 | 1.64
10 | Clc1cc(Cl)cc(CN[C@@H]2CCN(c3nc4ccc(Cl)nc4[nH]3)C2)c1 [Compound 1847, (3R)-1-{5-chloro-3H-imidazo[4,5-b]pyridin-2-yl}-N-[(3,5-dichlorophenyl)methyl]pyrrolidin-3-amine] | 9.01 | 0.696
11 | Clc1ccc(CN[C@@H]2CCN(c3nc4ccc(Cl)nc4[nH]3)C2)c(Cl)c1 [Compound 1848, (3R)-1-{5-chloro-3H-imidazo[4,5-b]pyridin-2-yl}-N-[(2,4-dichlorophenyl}methyl]pyrrolidin-3-amine] | 10.6 | 0.847
12 | Clc1cc(Cl)cc(CNCCNc2nc3ncc(Cl)cc3[nH]2)c1 [Compound 1850, [2-({6-chloro-1H-imidazo[4,5-b]pyridin-2-yl}amino)ethyl][(3,5-dichlorophenyl)methyl]amine] | 3.87 | 0.385
13 | O=C(Cc1cc(Cl)cc(Cl)c1)NCc1nc2ccc(Cl)cc2[nH]1 [Compound 1851, N-((6-chloro-1H-benzo[d]imidazol-2-yl)methyl)-2-(3,5-dichlorophenyl)acetamide] | 3.38 | 0.081
14 | O=C(Cc1ccc(Cl)cc1Cl)NCc1nc2ccc(Cl)cc2[nH]1 [Compound 1852, N-[(6-chloro-1H-1,3-benzodiazol-2-yl)methyl]-2-(2,4-dichlorophenyl)acetamide] | 5.54 | 0.075
15 | Clc1cc(Cl)cc(CNCc2nc3ccc(Br)cc3[nH]2)c1 [Compound 1853, N-(3,5-dichlorobenzyl)(6-bromo-1H-benzo[d]imidazol-2-yl)methanamine] | > 20 | > 10
16 | Clc1cc(Cl)cc(CN[C@@H]2CCC[C@H](c3nc4nc(Cl)ccc4[nH]3)C2)c1 [Compound 1854, (1R,3S)-3-(5-chloro-1H-imidazo[4,5-b]pyridin-2-yl)-N-(3,5-dichlorobenzyl)cyclohexanamine] | 0.58 | 0.106
17 | Clc1cc(Cl)cc(CN[C@@H]2CCCN(c3nc4nc(Cl)ccc4[nH]3)C2)c1 [Compound 1855, (R)-1-(5-chloro-1H-imidazo[4,5-b]pyridin-2-yl)-N-(3,5-dichlorobenzyl) piperidin-3-amine] | 0.999 | 0.192
18 | Clc1ccc(CNC2CCCN(c3nc4nc(Cl)ccc4[nH]3)C2)c(Cl)c1 (stereo not shown) [Compound 1857, 1-(5-chloro-1H-imidazo[4,5-b]pyridin-2-yl)-N-(2,4-dichlorobenzyl) piperidin-3-amine] | 1.48 | 0.072
19 | Fc1ccc2[nH]c(CCCNCc3cc(Cl)cc(Cl)c3)nc2n1 [Compound 1858, N-(3,5-dichlorobenzyl)-3-(5-fluoro-1H-imidazo[4,5-b]pyridin-2-yl)propan-1-amine] | 1.89 | 0.34
20 | CC(=O)N(Cc1cc(Cl)cc(Cl)c1)[C@@H]1CCC[C@H](c2nc3nc(Cl)ccc3[nH]2)C1 [Compound 1859, N-((1R,3S)-3-(5-chloro-1H-imidazo[4,5-b]pyridin-2-yl)cyclohexyl)-N-(3,5-dichlorobenzyl)acetamide] | > 20 | 1.43
21 | CC(=O)N(Cc1cc(Cl)cc(Cl)c1)C1CCCC(c2nc3cc(F)ccc3[nH]2)C1 (stereo not shown) [Compound 1860, N-(3,5-dichlorobenzyl)-N-(3-(5-fluoro-1H-benzo[d]imidazol-2-yl)cyclohexyl)acetamide] | 8.57 | 6.9
22 | CC(=O)N(Cc1cc(Cl)cc(Cl)c1)C1CCCC(c2nc3cc(Cl)ccc3[nH]2)C1 (stereo not shown) [Compound 1861, N-(3-(5-chloro-1H-benzo[d]imidazol-2-yl)cyclohexyl)-N-(3,5-dichlorobenzyl)acetamide] | 4.44 | 1.47
23 | Clc1cc(Cl)cc(NCC2CCCN(c3nc4nc(Cl)c(Br)cc4[nH]3)C2)c1 (stereo not shown) [Compound 1863, N-((1-(6-bromo-5-chloro-1H-imidazo[4,5-b]pyridin-2-yl)piperidin-3-yl)methyl)-3,5-dichloroaniline] | 3.29 | > 10
24 | Clc1cc(Cl)cc(CNC2CN(c3nc4nc(Cl)ccc4[nH]3)C2)c1 [Compound 1864, 1-{5-chloro-1H-imidazo[4,5-b]pyridin-2-yl}-N-[(3,5-dichlorophenyl)methyl]azetidin-3-amine] | > 20 | 2.17
25 | Clc1cc(Cl)cc(CNC2CN(c3nc4nc(Cl)c(Br)cc4[nH]3)C2)c1 [Compound 1865, 1-{6-bromo-5-chloro-1H-imidazo[4,5-b]pyridin-2-yl}-N-[(3,5-dichlorophenyl)methyl]azetidin-3-amine] | 6.63 | > 10
26 | Clc1cc(Cl)cc(CN2CCN(c3nc4nc(Cl)ccc4[nH]3)CC2)c1 [Compound 1866, 5-chloro-2-(4-(3,5-dichlorobenzyl)piperazin-1-yl)-1H-imidazo[4,5-b]pyridine] | > 20 | > 10
